# Source: patent US20130225611A1, “Compositions and Methods for Reducing Cancer Cell Proliferation and Modulating Importin-Beta Function” (THE REGENTS OF THE UNIVERSITY OF CALIFORNIA, priority 2011, published 2013)
# Experiments:
# RanGTP = biological target: T1, RanGTP (Homo sapiens, UniProt P62826, Q69L); assay: fluorescent thermal shift assay (Sypro Orange), RanGTP (RanQ69L); type: binding; details: 2 μM RanQ69L, 50 μM importazole
# T1 construct: made in house; host or cells: SG13 cells (E. coli)
# Protocol: (§1) Experiments were performed using Applied Biosystems StepOnePlus™ Real-Time polymerase chain reaction (RT-PCR) System. Protein stocks were diluted in PBS and added 70% v/v to a Microamp® Fast 96-well Reaction Plate and maintained on ice. Compounds (importazole and control compound 3016) were then added at 30% v/v in 3% DMSO. Freshly prepared 100× water based-dilution of Sypro® Orange Protein Gel Stain was then added at 1% v/v to reach a final reaction volume of 20 μl. Samples were mixed by gentle pipetting. After sealing the plates with Microamp™ Optical Adhesive Film, the plate was subjected to a heating cycle composed of a 10 sec prewarming step at 25° C. and a gradient between 25° C. and 95° C. with a 0.3° C. ramp. Data was analyzed using the StepOnePlus™ Software v2.1.
# CRM1 = biological target: T2, CRM1 (Homo sapiens, UniProt O14980); assay: fluorescent thermal shift assay (Sypro Orange), CRM1; type: binding; details: 2 μM protein, 50 μM importazole
# T2 construct: made in house; host or cells: SG13 cells (E. coli)
# T2 sequence (O14980 whole entry, species assumed): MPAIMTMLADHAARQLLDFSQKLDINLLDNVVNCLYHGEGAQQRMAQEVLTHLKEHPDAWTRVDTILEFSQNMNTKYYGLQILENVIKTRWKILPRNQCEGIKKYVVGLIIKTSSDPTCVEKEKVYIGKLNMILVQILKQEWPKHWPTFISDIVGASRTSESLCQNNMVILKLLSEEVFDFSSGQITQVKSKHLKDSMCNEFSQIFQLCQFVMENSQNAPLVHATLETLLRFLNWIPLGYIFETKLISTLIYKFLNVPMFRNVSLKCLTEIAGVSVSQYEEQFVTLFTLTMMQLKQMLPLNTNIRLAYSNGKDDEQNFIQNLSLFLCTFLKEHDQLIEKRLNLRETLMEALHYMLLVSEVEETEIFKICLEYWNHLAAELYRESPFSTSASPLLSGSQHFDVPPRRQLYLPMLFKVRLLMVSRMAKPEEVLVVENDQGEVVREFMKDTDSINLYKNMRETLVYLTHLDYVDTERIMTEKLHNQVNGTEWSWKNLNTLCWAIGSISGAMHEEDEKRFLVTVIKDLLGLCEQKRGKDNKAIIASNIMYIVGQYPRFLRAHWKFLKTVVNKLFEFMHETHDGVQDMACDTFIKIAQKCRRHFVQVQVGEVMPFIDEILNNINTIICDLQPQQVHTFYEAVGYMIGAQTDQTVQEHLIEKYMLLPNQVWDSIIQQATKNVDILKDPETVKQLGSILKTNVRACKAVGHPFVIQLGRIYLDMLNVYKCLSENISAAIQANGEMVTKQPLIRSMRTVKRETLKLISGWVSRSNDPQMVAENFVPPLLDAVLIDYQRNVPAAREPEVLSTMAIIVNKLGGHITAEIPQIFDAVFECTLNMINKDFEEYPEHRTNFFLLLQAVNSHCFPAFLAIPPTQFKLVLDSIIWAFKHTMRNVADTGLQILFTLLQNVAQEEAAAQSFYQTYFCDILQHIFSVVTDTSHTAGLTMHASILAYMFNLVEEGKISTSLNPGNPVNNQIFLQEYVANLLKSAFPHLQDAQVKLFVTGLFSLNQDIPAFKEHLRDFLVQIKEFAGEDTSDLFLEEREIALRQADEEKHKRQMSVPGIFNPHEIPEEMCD
# Protocol: as §1
# HeLa cells = assay: mitotic spindle defects in HeLa cells (tubulin and DNA staining); type: cell-based, human; details: HeLa cells treated for one hour
# Protocol: To examine the consequences of importazole on mitosis, HeLa cells treated for one hour were fixed and stained for tubulin and chromosomes. […] Spindle positioning was not previously attributed to the Ran pathway and this phenotype may be a consequence of astral microtubule disruption by importazole.
# Cells were fixed in 4% formaldehyde and 0.1% glutaraldehyde in PHEM (60 mM PIPES, 25 mM HEPES, 10 mM EGTA, 2 mM MgSO4) at 37° C. for 15 minutes followed by permeabilization with 0.1% triton X-100 for 2 minutes at room temperature. Cells were then washed and blocked (PHEM+5% FBS+0.2% saponin) and stained by standard techniques using the E7-A anti β tubulin antibody (Developmental Studies Hybridoma Bank) diluted 1:1000 and Hoechst dye.
# [1] = biological target: T3, CFP-Ran and YFP-importin-β (Homo sapiens, UniProt Q14974); assay: pull-down of CFP-Ran with S-tagged YFP-importin-β; type: binding; details: importazole 200 μM
# T3 construct: made in house; host or cells: BL21 cells (E. coli)
# Protocol: For pulldown experiments to detect interaction between CFP-Ran and YFP-importin-β, all reactions were performed in buffer consisting of PBS+2 mM MgCl2, 5% glycerol, 0.01% NP-40, and 1.0 mM DTT. Reaction buffer was combined with the following components in this order: CFP-Ran, RCC1, BSA, GDP or GTP, importazole or 100% DMSO, and YFP-importin-β, yielding the following final concentrations: CFP-Ran: 2.5 nM, RCC1: 20 nM, BSA: 0.1 mg/ml, GDP or GTP: 200 μM, importazole: 200 μM, […]: 5.0 nM. Reactions were incubated for 10 min at room temperature, […] of S-protein agarose was added, and then incubated for an additional 30 min on a rotator before pelleting the agarose at 3,000 rpm for 1 min. The supernatant was removed followed by three washes with […] reaction buffer. The S-protein pellet was resuspended in 15 μl of sodium dodecyl sulfate-polyacrylamide gel electrophoresis (SDS PAGE) sample buffer and boiled briefly. After spinning down the S-protein pellet, 10 μl of the sample was analyzed by SDS PAGE.
# [2] = biological target: T4, interaction between RanGTP and importin-β (Homo sapiens, UniProt Q14974); assay: CFP-Ran/YFP-importin-β FRET assay; type: binding; details: spectrofluorimeter retest
# T4 construct: made in house; host or cells: BL21 cells (E. coli)
# Protocol: A reverse chemical genetic high-throughput screen (HTS) was performed to identify compounds that affect the interaction between RanGTP and importin-β using a fluorescence resonance energy transfer (FRET)-based assay with cyan fluorescent protein (CFP)-tagged Ran and yellow fluorescent protein (YFP)-tagged importin-β. These proteins bind one another only when CFP-Ran is guanosine triphosphate (GTP)-bound, which can be detected by changes in FRET (FIG. 1A and FIG. 1B). When CFP-Ran is incubated with RCC1, GTP, and YFP-importin-β, and the mixture is excited with 435 nm fluorescence in a fluorometer, a strong FRET signal is generated, as indicated by a decrease in the fluorescence intensity at 475 nm (the emission wavelength of CFP) and an increase in the fluorescence intensity at 525 nm (the emission wavelength of YFP). No FRET signal is generated if GDP is substituted for GTP, and nucleotide-specific interaction could also be observed biochemically, as S-tagged YFP-importin-β pulls CFP-Ran out of solution only in the presence of GTP. […]
# The following reaction buffer was used for all FRET assays, including the high-throughput screen: 1× phosphate buffered saline (PBS), 5% glycerol, 2 mM MgCl2, 1 mM dithiothreitol (DTT), 0.01% NP-40. […] The reaction was excited using a Fluorolog 3 spectrofluorometer with 435 nm fluorescence and the emission was read between 460 nm and 550 nm. […]
smiles,measurement,setting,value
"CC(Nc1nc(N2CCCC2)nc2ccccc12)c1ccccc1 (stereo not drawn) [importazole, (1-phenyl-ethyl)-(2-pyrrolidin-1-yl-quinazolin-4-yl)-amine]",effect on melting curve of RanGTP,RanGTP,did not significantly affect the melting curves
same,effect on melting curve of CRM1,CRM1,did not significantly affect the melting curves
same,cells displaying off-center spindles,HeLa cells,more than 40%
same,"defects in spindle assembly, chromosome alignment and spindle size",HeLa cells; 0 to 40 μM,dose-dependent defects
same,effect on binding of CFP-RanGTP and YFP-importin-β in pull-down assays,[1],did not obviously affect the binding of the two proteins
same,effect on FRET signal generated by CFP-Ran and YFP-importin-β,[2],reproducibly disrupted the FRET signal
